According to ChEMBL document CHEMBL1201862, “PubChem BioAssay data set” (2004):
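Values below derive from 48-hour exposures of cells grown in 96-well plates, with endpoints linearly interpolated between the two concentrations bracketing the appropriate inhibition level. GI50: concentration for 50% inhibition of growth.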 Calls of active or inactive are those of the source. No stated cut-off is given here; in the data, active = GI50 up to about 1.1 µM and inactive = higher.

Tests used:
Assay in all cases: NCI-60 cell line screen, 48 h
KM12 = system: KM12
TK-10 = system: TK-10
HCT-15 = system: HCT-15
SK-OV-3 = system: SK-OV-3
HT-29 = system: HT-29
NCI-H522 = system: NCI-H522
SF-268 = system: SF-268
MOLT-4 = system: MOLT-4
OVCAR-8 = system: OVCAR-8
RPMI-8226 = system: RPMI-8226
MDA-N = system: MDA-N
EKVX = system: EKVX
OVCAR-4 = system: OVCAR-4
PC-3 = system: PC-3
HL-60 = system: HL-60
LOX IMVI = system: LOX IMVI
A549 = system: A549
UACC-257 = system: UACC-257
786-0 = system: 786-0
HOP-62 = system: HOP-62
SK-MEL-2 = system: SK-MEL-2
CAKI-1 = system: CAKI-1
SNB-19 = system: SNB-19
OVCAR-3 = system: OVCAR-3
HOP-92 = system: HOP-92
IGROV-1 = system: IGROV-1
NCI-H460 = system: NCI-H460
K562 = system: K562
SW-620 = system: SW-620
U-251 = system: U-251
COLO 205 = system: COLO 205
SN12C = system: SN12C
Malme-3M = system: Malme-3M
MCF7 = system: MCF7
SK-MEL-28 = system: SK-MEL-28
MDA-MB-435 = system: MDA-MB-435
RXF 393 = system: RXF 393
SF-539 = system: SF-539
CCRF-CEM = system: CCRF-CEM
BT-549 = system: BT-549
NCI/ADR-RES = system: NCI/ADR-RES
M14 = system: M14
UO-31 = system: UO-31
T47D = system: T47D
OVCAR-5 = system: OVCAR-5
HCC 2998 = system: HCC 2998
MDA-MB-231 = system: MDA-MB-231
SK-MEL-5 = system: SK-MEL-5
A498 = system: A498
SF-295 = system: SF-295
HCT-116 = system: HCT-116
NCI-H226 = system: NCI-H226
DU-145 = system: DU-145
SNB-75 = system: SNB-75
Hs-578T = system: Hs-578T
ACHN = system: ACHN
NCI-H23 = system: NCI-H23
UACC-62 = system: UACC-62
SR = system: SR

C=C(C)C(=O)OC1C[C@H](COC(C)=O)C2CC=C(C)C2C2OC(=O)C(=C)[C@H]12 (stereo partly drawn)
GI50 (KM12): 11.7 µM (inactive)
GI50 (TK-10): 6.76 µM (inactive)
GI50 (HCT-15): 1910 nM
GI50 (SK-OV-3): 17.2 µM (inactive)
GI50 (HT-29): 4.25 µM (inactive)
GI50 (NCI-H522): 1.45 µM (inactive)
GI50 (SF-268): 2.4 µM (inactive)
GI50 (MOLT-4): 1.72 µM (inactive)
GI50 (OVCAR-8): 5.31 µM (inactive)
GI50 (RPMI-8226): 525 nM (active)
GI50 (MDA-N): 3.66 µM (inactive)
GI50 (EKVX): 9.82 µM (inactive)
GI50 (OVCAR-4): 1.74 µM (inactive)
GI50 (PC-3): 7.24 µM (inactive)
GI50 (HL-60): 815 nM (active)
GI50 (LOX IMVI): 1.85 µM (inactive)
GI50 (A549): 17 µM (inactive)
GI50 (UACC-257): 4.09 µM (inactive)
GI50 (786-0): 2.98 µM (inactive)
GI50 (HOP-62): 13.3 µM (inactive)
GI50 (SK-MEL-2): 2.82 µM (inactive)
GI50 (CAKI-1): 2.81 µM (inactive)
GI50 (SNB-19): 16.9 µM (inactive)
GI50 (OVCAR-3): 2.19 µM (inactive)
GI50 (HOP-92): 1.92 µM (inactive)
GI50 (IGROV-1): 11.7 µM (inactive)
GI50 (NCI-H460): 15 µM (inactive)
GI50 (K562): 1.87 µM (inactive)
GI50 (SW-620): 2.23 µM (inactive)
GI50 (U-251): 8.67 µM (inactive)
GI50 (COLO 205): 2.54 µM (inactive)
GI50 (SN12C): 4.97 µM (inactive)
GI50 (Malme-3M): 1.55 µM (inactive)
GI50 (MCF7): 4.11 µM (inactive)
GI50 (SK-MEL-28): 2.41 µM (inactive)
GI50 (MDA-MB-435): 3.33 µM (inactive)
GI50 (RXF 393): 3.81 µM (inactive)
GI50 (SF-539): 4.59 µM (inactive)
GI50 (CCRF-CEM): 1.64 µM (inactive)
GI50 (BT-549): 4.13 µM (inactive)
GI50 (NCI/ADR-RES): 2.18 µM (inactive)
GI50 (M14): 2.07 µM (inactive)
GI50 (UO-31): 2.2 µM (inactive)
GI50 (T47D): 4.98 µM (inactive)
GI50 (OVCAR-5): 9.77 µM (inactive)
GI50 (HCC 2998): 12.2 µM (inactive)
GI50 (MDA-MB-231): 4.3 µM (inactive)
GI50 (SK-MEL-5): 7.5 µM (inactive)
GI50 (A498): 14.3 µM (inactive)
GI50 (SF-295): 17.1 µM (inactive)
GI50 (HCT-116): 1.67 µM (inactive)
GI50 (NCI-H226): 17.3 µM (inactive)
GI50 (DU-145): 6.19 µM (inactive)
GI50 (SNB-75): 10.8 µM (inactive)
GI50 (Hs-578T): 4.06 µM (inactive)
GI50 (ACHN): 3.69 µM (inactive)
GI50 (NCI-H23): 4.26 µM (inactive)
GI50 (UACC-62): 4.54 µM (inactive)
GI50 (SR): 2.06 µM (inactive)

CCOP(=O)(OCC)C(=C1C=C(C(C)(C)C)C(=O)C(C(C)(C)C)=C1)P(=O)(OCC)OCC
GI50 (KM12): > 10 µM (inactive)
GI50 (TK-10): 3.27 µM (inactive)
GI50 (HCT-15): 3100 nM
GI50 (SK-OV-3): > 10 µM (inactive)
GI50 (HT-29): > 10 µM (inactive)
GI50 (NCI-H522): 2.27 µM (inactive)
GI50 (SF-268): > 10 µM (inactive)
GI50 (MOLT-4): 2.89 µM (inactive)
GI50 (OVCAR-8): > 10 µM (inactive)
GI50 (RPMI-8226): 5080 nM (inactive)
GI50 (MDA-N): > 5.68 µM (inactive)
GI50 (EKVX): > 7.76 µM (inactive)
GI50 (OVCAR-4): 1.87 µM (inactive)
GI50 (PC-3): > 10 µM (inactive)
GI50 (HL-60): 3530 nM (inactive)
GI50 (LOX IMVI): > 10 µM (inactive)
GI50 (A549): > 10 µM (inactive)
GI50 (UACC-257): > 8.15 µM (inactive)
GI50 (786-0): > 4.09 µM (inactive)
GI50 (HOP-62): > 10 µM (inactive)
GI50 (SK-MEL-2): > 10 µM (inactive)
GI50 (CAKI-1): 3.33 µM (inactive)
GI50 (SNB-19): > 10 µM (inactive)
GI50 (OVCAR-3): 2.41 µM (inactive)
GI50 (HOP-92): 2.39 µM (inactive)
GI50 (IGROV-1): > 10 µM (inactive)
GI50 (NCI-H460): > 10 µM (inactive)
GI50 (K562): > 4.8 µM (inactive)
GI50 (SW-620): 1.89 µM (inactive)
GI50 (U-251): > 10 µM (inactive)
GI50 (COLO 205): 1.98 µM (inactive)
GI50 (SN12C): > 10 µM (inactive)
GI50 (Malme-3M): 1.82 µM (inactive)
GI50 (MCF7): > 6.84 µM (inactive)
GI50 (SK-MEL-28): > 10 µM (inactive)
GI50 (MDA-MB-435): > 5.24 µM (inactive)
GI50 (RXF 393): 4.97 µM (inactive)
GI50 (SF-539): > 10 µM (inactive)
GI50 (CCRF-CEM): 1.14 µM (inactive)
GI50 (BT-549): 2.86 µM (inactive)
GI50 (NCI/ADR-RES): > 10 µM (inactive)
GI50 (M14): 1.97 µM (inactive)
GI50 (UO-31): > 10 µM (inactive)
GI50 (T47D): 2.13 µM (inactive)
GI50 (OVCAR-5): > 10 µM (inactive)
GI50 (HCC 2998): > 10 µM (inactive)
GI50 (MDA-MB-231): > 9.27 µM (inactive)
GI50 (SK-MEL-5): > 10 µM (inactive)
GI50 (A498): > 10 µM (inactive)
GI50 (SF-295): > 10 µM (inactive)
GI50 (HCT-116): 2.54 µM (inactive)
GI50 (NCI-H226): > 10 µM (inactive)
GI50 (DU-145): > 10 µM (inactive)
GI50 (SNB-75): > 10 µM (inactive)
GI50 (Hs-578T): > 10 µM (inactive)
GI50 (ACHN): 1.94 µM (inactive)
GI50 (NCI-H23): > 10 µM (inactive)
GI50 (UACC-62): > 10 µM (inactive)
GI50 (SR): 3.64 µM (inactive)
